Columns and labels:
Assay in all cases: stopped-flow CO2 hydrase assay
Type in all cases: biochemical
[1] = target: T1, hCA I (Homo sapiens, UniProt P00915); settings: read-out: KI (nM) ^a / hCA I (α-CA)
T1 construct: gene CA1; recombinant, obtained in-house; cytosolic alpha-CA
Text: stopped-flow CO2 hydrase assay on hCA I

[2] = target: T2, CgNce103 (Nakaseomyces glabratus, UniProt Q6FTL6); settings: read-out: KI (nM) ^a / CgNce103 (β-CA)
T2 construct: gene NCE103; recombinant, obtained in-house; beta-CA
T2 sequence (Q6FTL6 1-219): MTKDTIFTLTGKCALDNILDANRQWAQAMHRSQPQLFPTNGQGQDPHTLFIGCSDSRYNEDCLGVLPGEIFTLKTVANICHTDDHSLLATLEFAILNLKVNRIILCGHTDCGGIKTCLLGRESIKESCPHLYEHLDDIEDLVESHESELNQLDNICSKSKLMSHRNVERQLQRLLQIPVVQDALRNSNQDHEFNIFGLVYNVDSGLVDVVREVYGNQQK

[3] = target: T3, hCA II (Homo sapiens, UniProt P00918); settings: read-out: KI (nM) ^a / hCA II (α-CA)
T3 construct: gene CA2; recombinant, obtained in-house; cytosolic alpha-CA
Text: stopped-flow CO2 hydrase assay on hCA II

[4] = target: T4, MgCA (Malassezia globosa, UniProt A8Q1N3); settings: […] TRIS pH […] Na2SO4, […] h preincubation at room temperature; read-out: KI (nM) ^a / MgCA (β-CA)
T4 construct: gene MGL_1814; recombinant, obtained in-house; beta-CA
T4 sequence (A8Q1N3 1-241): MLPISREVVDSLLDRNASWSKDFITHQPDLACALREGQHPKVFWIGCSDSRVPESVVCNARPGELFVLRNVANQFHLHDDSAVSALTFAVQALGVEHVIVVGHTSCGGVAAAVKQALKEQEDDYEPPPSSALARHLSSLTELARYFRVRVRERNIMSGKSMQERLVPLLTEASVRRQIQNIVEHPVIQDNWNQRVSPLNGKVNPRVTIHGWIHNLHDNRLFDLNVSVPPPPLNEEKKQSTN

[5] = target: T5, hCA VII (Homo sapiens, UniProt P43166); settings: read-out: KI (nM) ^a / hCA VII (α-CA)
T5 construct: gene CA7; recombinant, obtained in-house; cytosolic alpha-CA
T5 sequence (P43166 whole entry): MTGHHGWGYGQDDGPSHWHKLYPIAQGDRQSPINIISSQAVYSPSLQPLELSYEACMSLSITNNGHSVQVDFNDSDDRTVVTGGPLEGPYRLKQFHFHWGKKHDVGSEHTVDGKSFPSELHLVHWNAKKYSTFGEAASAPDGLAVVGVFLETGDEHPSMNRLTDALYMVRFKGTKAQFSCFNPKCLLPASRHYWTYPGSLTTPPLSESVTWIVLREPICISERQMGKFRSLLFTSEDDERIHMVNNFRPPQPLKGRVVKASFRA
Text: stopped-flow CO2 hydrase assay on hCA VII

T1 sequence (P00915 2-261): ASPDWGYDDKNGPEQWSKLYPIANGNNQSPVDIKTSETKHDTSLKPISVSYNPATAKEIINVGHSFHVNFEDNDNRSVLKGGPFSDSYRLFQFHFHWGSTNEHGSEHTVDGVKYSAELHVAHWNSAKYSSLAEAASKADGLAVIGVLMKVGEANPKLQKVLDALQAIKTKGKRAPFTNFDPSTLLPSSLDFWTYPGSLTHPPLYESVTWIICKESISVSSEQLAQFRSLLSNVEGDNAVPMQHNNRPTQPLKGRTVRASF

Row | SMILES | Ki [1] [nM] | Ki [2] [nM] | Ki [3] [nM] | Ki [4] [nM] | Ki [5] [nM]
1 | NS(=O)(=O)c1ccc(N2CC(=O)N(Cc3ccccc3F)C2=O)cc1 [8l, 4-(3-(2-Fluorobenzyl)-2,4-dioxoimidazolidin-1-yl)benzenesulfonamide] | 447 | 48.8 | 1.2 | 81100 | 12.7
2 | NS(=O)(=O)c1ccc(N2CC(=O)N(Cc3c(F)c(F)c(F)c(F)c3F)C2=O)cc1 [8n, 4-(2,4-Dioxo-3-((perfluorophenyl)methyl)imidazolidin-1-yl)benzenesulfonamide] | 415 | 35.7 | 91.2 | 34900 | 16.9
3 | Cc1ccc(CN2C(=O)CN(c3ccc(S(N)(=O)=O)cc3)C2=O)cc1 [8e, 4-(3-(4-Methylbenzyl)-2,4-dioxoimidazolidin-1-yl)benzenesulfonamide] | 2930 | 18.3 | 32.7 | 38900 | 3
4 | NS(=O)(=O)c1ccc(N2CC(=O)N(Cc3ccc(Cl)c(Cl)c3)C2=O)cc1 [8m, 4-(3-(3,4-Dichlorobenzyl)-2,4-dioxoimidazolidin-1-yl)benzenesulfonamide] | 688 | 67.9 | 85.6 | > 100000 | 133
5 | N#Cc1ccc(CN2C(=O)CN(c3ccc(S(N)(=O)=O)cc3)C2=O)cc1 [8g, 4-(3-(4-Cyanobenzyl)-2,4-dioxoimidazolidin-1-yl)benzenesulfonamide] | 570 | 38.4 | 7.2 | > 100000 | 12
6 | CCCCCCCN1C(=O)CN(c2ccc(S(N)(=O)=O)cc2)C1=O [8b, 4-(3-Heptyl-2,4-dioxoimidazolidin-1-yl)benzenesulfonamide] | 747 | 83.7 | 56.4 | 95700 | 187
7 | NS(=O)(=O)c1ccc(N2CC(=O)N(Cc3ccc(OC(F)(F)F)cc3)C2=O)cc1 [8j, 4-(2,4-Dioxo-3-(4-(trifluoromethoxy)benzyl)imidazolidin-1-yl)benzenesulfonamide] | 425 | 5.9 | 16.4 | > 100000 | 22.4
8 | Cc1cccc(CN2C(=O)CN(c3ccc(S(N)(=O)=O)cc3)C2=O)c1 [8k, 4-(3-(3-Methylbenzyl)-2,4-dioxoimidazolidin-1-yl)benzenesulfonamide] | 1080 | 8.4 | 58.3 | > 100000 | 18.8
9 | NS(=O)(=O)c1ccc(N2CC(=O)N(Cc3ccccc3)C2=O)cc1 [8d, 4-(3-Benzyl-2,4-dioxoimidazolidin-1-yl)benzenesulfonamide] | 837 | 20.9 | 8.7 | 64600 | 5.3
10 | C=CCN1C(=O)CN(c2ccc(S(N)(=O)=O)cc2)C1=O [8c, 4-(3-Allyl-2,4-dioxoimidazolidin-1-yl)benzenesulfonamide] | 234 | 54.2 | 32.6 | 66600 | 19.5
11 | NS(=O)(=O)c1ccc(N2CC(=O)N(Cc3ccc([N+](=O)[O-])cc3)C2=O)cc1 [8h, 4-(3-(4-Nitrobenzyl)-2,4-dioxoimidazolidin-1-yl)benzenesulfonamide] | 657 | 6.6 | 6.1 | > 100000 | 30.3
12 | NS(=O)(=O)c1ccc(N2CC(=O)N(Cc3ccc(C(F)(F)F)cc3)C2=O)cc1 [8i, 4-(2,4-Dioxo-3-(4-(trifluoromethyl)benzyl)imidazolidin-1-yl)benzenesulfonamide] | 601 | 13.1 | 43.3 | 59600 | 14.3
13 | NS(=O)(=O)c1ccc(N2CC(=O)N(Cc3ccc(Cl)cc3)C2=O)cc1 [8f, 4-(3-(4-Chlorobenzyl)-2,4-dioxoimidazolidin-1-yl)benzenesulfonamide] | 8790 | 44.9 | 62.2 | 41500 | 15.3
14 | CCN1C(=O)CN(c2ccc(S(N)(=O)=O)cc2)C1=O [8a, 4-(3-Ethyl-2,4-dioxoimidazolidin-1-yl)benzenesulfonamide] | 262 | 46 | 25.8 | 68100 | 30.8
15 | NS(=O)(=O)c1ccc(N2CC(=O)NC2=O)cc1 [compound 6, 4-(2,4-Dioxoimidazolidin-1-yl)benzenesulfonamide] | 504 | 29.5 | 18.1 | 37200 | 61.4
